Reference: EP3283473B1, “GHRELIN O-ACYL TRANSFERASE INHIBITORS” (Eli Lilly and Company, priority 2015, dated 2016)

Target: T1, GOAT enzyme (Mus musculus, UniProt P0C7A3)
T1 construct: from tissue; host or cells: living male C57BL/6 mice (endogenous enzyme)
T1 sequence (P0C7A3 1-435): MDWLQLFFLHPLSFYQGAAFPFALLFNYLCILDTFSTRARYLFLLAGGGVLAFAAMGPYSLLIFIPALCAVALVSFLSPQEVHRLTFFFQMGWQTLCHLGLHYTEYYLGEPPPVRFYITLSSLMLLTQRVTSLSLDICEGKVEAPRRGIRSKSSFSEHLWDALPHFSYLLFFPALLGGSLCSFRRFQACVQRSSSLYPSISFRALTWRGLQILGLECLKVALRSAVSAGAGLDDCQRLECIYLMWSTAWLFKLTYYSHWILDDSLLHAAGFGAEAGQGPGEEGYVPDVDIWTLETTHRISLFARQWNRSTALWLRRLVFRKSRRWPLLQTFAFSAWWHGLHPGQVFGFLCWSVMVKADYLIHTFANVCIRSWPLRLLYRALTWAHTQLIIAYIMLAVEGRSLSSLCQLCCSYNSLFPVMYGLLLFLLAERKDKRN
Test: In vivo dose dependent 3 day BID study for GOAT inhibitor (plasma AG and UAG by ELISA)
Parameters: species or system male C57BL/6 mice
Conditions: for decreases plasma AG / increases UAG: administration for 3 days; for decreases plasma AG / increases UAG / AG (% of control) / AG/total-ghrelin (% of vehicle control) / UAG (% of vehicle control): mice; for reduction in AG to total ghrelin ratio: compared to vehicle-treated control animals; for AG (% of control) / AG/total-ghrelin (% of vehicle control) / UAG (% of vehicle control): oral gavage BID, 3 days, plasma
Protocol: Comparing the change in the ratio of AG to total ghrelin in the compound treated group and that of the vehicle treated group reflects the degree of GOAT enzyme inhibition in vivo, due to the dynamic processing of UAG to AG by the GOAT enzyme. In the in vivo pharmacodynamic studies herein, the levels of AG and UAG in plasma and stomach in the vehicle and compound treated groups are measured by ELISA specifically to these two analytes. The total ghrelin level of each sample is computed as the sum of AG and UAG by these ELISA measurements. The ratio of AG to total ghrelin is defined by the level of AG in each sample divided by the level of total ghrelin in the same sample. The levels of AG, UAG and ratio of AG to total ghrelin in the vehicle treated group is computed and set as 100%. The relative change of these parameters in the compound treated group is then computed to determine the effectiveness of the test compound.
Purchase male C57BL/6 mice from Harlan (Indianapolis, IN) at 9 weeks of age. House the mice individually in a temperature-controlled (24 °C) facility with a 12 hours light/dark cycle (lights on 2200 h), and allow free access to a standard rodent chow (diet 2014, Harlan) and water. Typically, use the mice when they are 10-13 weeks of age at the time of the study. On day 0 of the experiment, randomize the mice into treatment groups (N=7/group) so each group has similar mean body weights. On day 1 and day 2, treat the animals with vehicle (1% hydroxyethylcellulose, 0.25% TWEEN™ 80, 0.05% antifoam) or test compound prepared in the vehicle as suspension at various dosages by oral gavage at 7 am and 7 pm. On day 3, fast the animals, move them into clean cages and dose with vehicle or the test compound again at 8 am by oral gavage. That same day at 1 pm, sacrifice the animals by decapitation to collect blood. For details of blood collection and plasma treatments see Blood collection and Extraction of Ghrelin from Plasma section below.
Collect approximately 600 µL blood into a pre-weighed EDTA tube containing 600 µL (defined as Vpreservative) freshly-prepared preservative (4 mM PEFABLOC® [4-(2-aminoethyl) benzenesulfonyl fluoride hydrochloride], 72 mM NaCl, 58 mM NaF, 0.032 N hydrochloric acid, pH 3.0) and mix immediately. Weigh the tube again and keep on ice. To accurately determine the exact blood volume of each sample using this blood collection procedure, the weight of the blood for each mouse is computed using the following equation: Weight of Blood = (Weight of the tube containing Blood + preservative)−; (Weight of the tube containing preservative) [formula] Blood volume(Vblood) = (Weight of blood)/1.06 [formula]
Within 15 minutes after the blood collection, samples are centrifuged at 5000 rpm at 4 °C for 8 min. Remove plasma (650 µL) to a 5 mL glass tube containing 1 N hydrochloric acid (65µL), mix and keep on ice.
AG and UAG are extracted from plasma using SEP-PAK®_C18 column to remove interference prior to performing the ELISA. The solid phase extraction of AG and UAG peptides by SEP-PAK®_C18 columns can be performed on a vacuum manifold (Waters Corp) or using a peristaltic pump. The sample SEP-PAK®_column extraction procedure is independently applied to the plasma sample obtained from each individual mouse. The general extraction protocol is described as follows.
All solutions used for the entire protocol of the SEP-PAK® column extraction should be at ice cold condition. Wet SEP-PAK®_columns (WAT054960, Waters Corp, Milford MA) with 99.9% ACN/0.1% TFA (1 mL of solution of 100 mL ACN/0.1 mL TFA). […] Once liquid is removed from the column, stop the pressure. Equilibrate the columns with 3% ACN/0.1% TFA (1 mL of 97 mL water, 3 mL ACN, 0.1 mL TFA). […] Dilute approximately 650 µL acidified plasma (defined as Vplasma added to column) to 1.4 mL ice cold 0.1% TFA. Load all diluted acidified plasma from the previous step onto the columns. […]

Cc1nc(C(F)(F)F)nc(N)c1CCC1CCN(C(=O)[C@H](C)NC(=O)c2ccnn2C)CC1 [Example 2, N-[(1S)-2-[4-[2-[4-Amino-6-methyl-2-(trifluoromethyl)pyrimidin-5-yl]ethyl]-1-piperidyl]-1-methyl-2-oxo-ethyl]-2-methyl-pyrazole-3-carboxamide]
decreases plasma AG (0.1 mg/kg): 40%
increases UAG (0.1 mg/kg): 2.10 fold
reduction in AG to total ghrelin ratio (0.1 mg/kg): 57%
AG (% of control) (0.1 mg/kg): 60 ± 8 (n=7) % of control
AG/total-ghrelin (% of vehicle control) (0.1 mg/kg): 43 ± 3 (n=7) % of vehicle control
UAG (% of vehicle control) (0.1 mg/kg): 210 ± 43 (n=7) % of vehicle control
decreases plasma AG (0.3 mg/kg): 60%
increases UAG (0.3 mg/kg): 2.22 fold
reduction in AG to total ghrelin ratio (0.3 mg/kg): 62%
AG (% of control) (0.3 mg/kg): 40 ± 10 (n=7) % of control
AG/total-ghrelin (% of vehicle control) (0.3 mg/kg): 28 ± 1 (n=7) % of vehicle control
UAG (% of vehicle control) (0.3 mg/kg): 222 ± 54 (n=7) % of vehicle control
decreases plasma AG (1 mg/kg): 56%
increases UAG (1 mg/kg): 3.57 fold
reduction in AG to total ghrelin ratio (1 mg/kg): 79%
AG (% of control) (1 mg/kg): 44 ± 6 (n=14) % of control
AG/total-ghrelin (% of vehicle control) (1 mg/kg): 21 ± 1 (n=14) % of vehicle control
UAG (% of vehicle control) (1 mg/kg): 357 ± 30 (n=14) % of vehicle control
decreases plasma AG (3 mg/kg): 63%
increases UAG (3 mg/kg): 3.49 fold
reduction in AG to total ghrelin ratio (3 mg/kg): 82%
AG (% of control) (3 mg/kg): 37 ± 9.6 (n=14) % of control
AG/total-ghrelin (% of vehicle control) (3 mg/kg): 18 ± 5 (n=14) % of vehicle control
UAG (% of vehicle control) (3 mg/kg): 349 ± 41 (n=14) % of vehicle control
decreases plasma AG (10 mg/kg): 63%
increases UAG (10 mg/kg): 3.78 fold
reduction in AG to total ghrelin ratio (10 mg/kg): 82%
AG (% of control) (10 mg/kg): 37 ± 9.9 (n=7) % of control
AG/total-ghrelin (% of vehicle control) (10 mg/kg): 18 ± 3 (n=7) % of vehicle control
UAG (% of vehicle control) (10 mg/kg): 378 ± 59 (n=7) % of vehicle control
